Like-named read-outs stand apart in the source and are kept apart here.
Tested on: form deprivation myopia
Settings: for difference of binocular refractions / difference of binocular axial lengths: 2 weeks after form deprivation, p<0.01; for difference of binocular axial lengths: vehicle 0.17±0.05

## O=C(O)c1cccnc1 [nicotinic acid]
FDM+NA (0.1 mg), FDM+Vehicle −5.43±1.69, FIG. 5A
  difference of binocular refractions: −3.43±1.80 D
FDM+NA (0.1 mg), FIG. 5B
  difference of binocular axial lengths: 0.10±0.06 mm
After periocular injection of 0.1 mg nicotinic acid, 2 weeks form deprivation, FIG. 5C
  choroidal blood flow, fellow eye vs. test eye: no statistical difference between two eyes

## COc1cc2nc(N3CCN(C(=O)c4ccco4)CC3)nc(N)c2cc1OC [prazosin]
FDM+Pr (10 μM), FDM+Vehicle −5.98±2.22, FIG. 6A
  difference of binocular refractions: −3.26±2.22 D
FDM+Pr (10 μM), FIG. 6B
  difference of binocular axial lengths: 0.10±0.06 mm

Reference: US20220016023A1, “METHOD FOR TREATING MYOPIA AND APPLICATION IN PREPARATION OF MEDICAMENT” (WENZHOU MEDICAL UNIVERSITY, priority 2018, published 2022)
